IC50 data for 26 molecules are collected here from patent publication US9062043B2, “Fused tricyclic compounds as serine-threonine protein kinase and PARP modulators” (SENHWA BIOSCIENCES, INC., priority 2006, dated 2015).

Common to all, as to type: cell-based
Assay [1] relates to HCT-116 human colorectal carcinoma cells. Briefly: Cell proliferation assay, Alamar Blue, HCT-116. (The colour change of resazurin is a common sign of viable cells or microbes.)
Assay [2] deals with MiaPaca human pancreatic carcinoma cells. Nature of the assay: Cell proliferation assay, Alamar Blue, MiaPaca. On the procedure: (§1) A representative cell-proliferation assay protocol using Alamar Blue dye (stored at 4° C., use 20 ul per well) is described hereafter.
(§2) c. Plate 4,000-5,000 cells per well in 100 μl of medium and seed into a 96-well plate according to the following plate layout. Add cell culture medium only to wells B10 to B12. Wells B1 to B9 have cells but no compound added.
(§3) d. Add 100 μl of 2× drug dilution to each well in a concentration shown in the plate layout above. At the same time, add 100 μl of media into the control wells (wells B10 to B12). Total volume is 200 μl/well.
(§4) e. Incubate four (4) days at 37° C., 5% CO2 in a humidified incubator.
(§5) f. Add 20 μl Alamar Blue reagent to each well.
(§6) g. Incubate for four (4) hours at 37° C., 5% CO2 in a humidified incubator.
(§7) h. Record fluorescence at an excitation wavelength of 544 nm and emission wavelength of 590 nm using a microplate reader.
(§8) In the assays, cells are cultured with a test compound for approximately four days, the dye then is added to the cells and fluorescence of […] dye is detected after approximately four hours. Different types of cells can be utilized in the assays (e.g., HCT-116 human colorectal carcinoma cells, PC-3 human prostatic cancer cells and MiaPaca human pancreatic carcinoma cells). Anti-proliferative effects of representative compounds are provided hereafter.

For assay [3], the system named is PC-3 human prostatic cancer cells. Nature of the assay: Cell proliferation assay, Alamar Blue, PC-3. The following applies: Table 18, read-out: IC50 PC3. As to the method:
as §1, §2, §3, §4, §5, §6, §7, §8

The subject of the next assay is Jurkat. Nature of the assay: Cell proliferation assay, Alamar Blue, Jurkat.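 Also: cells exposed to compound for about 4 days at 37 °C, then Alamar Blue added and fluorescence read after about 4 h, controls given medium without drug.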 The following applies: Homo sapiens, Table 18.
The subject of the next assay is BxPC3. Briefly: Cell proliferation assay, Alamar Blue, BxPC3. The following applies: Homo sapiens, BXPC-3; Table 19b. As to the method: as §2, §3, §4, §5, §6, §7, §8
The next assay has as its system PanC1. Briefly: Cell proliferation assay, Alamar Blue, PanC1. The following applies: Homo sapiens, PANC-1; Table 19b; read-out: IC50 PanC1. On the procedure: as §1, §2, §3, §4, §5, §6, §7, §8
In another assay the test system is Hs578T. Nature of the assay: Cell proliferation assay, Alamar Blue, Hs578T. The following applies: Homo sapiens, Hs-578T; Table 18.
[4] abbreviates: HCT-116, Table 16, second HCT-116 column.

The IC50 is the midpoint of a concentration-inhibition curve. On to `O=C(O)c1ccc2c(c1)nc(Nc1cccc(C(F)(F)F)c1)c1ccsc12`, for which the IC50 in assay [1] (setting [4]) is over 10 µM; in assay [2] (MIA PaCa-2, Table 16), over 10 µM.
In the case of `CCc1cccc(Nc2nc3cc(C(=O)O)ccc3c3sccc23)c1`, the IC50 was over 10 µM in assay [1] (setting [4]) and over 10 µM in assay [2] (MIA PaCa-2, Table 16).
Turning to `O=C(O)c1ccc2c(c1)nc(Nc1cccc(I)c1)c1ccsc12`, the IC50 was over 10 µM in assay [1] (setting [4]) and 9.44 µM in assay [2] (MIA PaCa-2, Table 16).
For `O=C(O)c1ccc2c(c1)nc(Nc1cccc(F)c1F)c1ccsc12`, in that order: over 10 µM and over 10 µM.
For `O=C(O)c1ccc2c(c1)nc(Nc1cc(F)cc(C(F)(F)F)c1)c1ccsc12`, in that order: over 10 µM and over 10 µM.
For `O=C(O)c1cc(F)cc(Nc2nc3cc(C(=O)O)ccc3c3sccc23)c1`, in that order: over 10 µM and over 10 µM.
Take `O=C(O)c1ccc2c(c1)nc(Nc1cc(F)ccc1F)c1ccsc12`: the half-maximal inhibitory concentration (IC50) was over 10 µM in assay [1] (setting [4]) and over 10 µM in assay [2] (MIA PaCa-2, Table 16).
For `O=C(O)c1ccc2c(c1)nc(Nc1cccc(S(=O)(=O)NC3CC3)c1)c1ccsc12`, the IC50 in assay [1] (setting [4]) is over 10 µM; in assay [2] (MIA PaCa-2, Table 16) it was over 10 µM.
For the molecule `O=C(O)c1ccc2c(c1)nc(Nc1ccc(F)c(F)c1)c1ccsc12`, the IC50 in assay [1] (setting [4]) is 0.83 µM; in assay [2] (MIA PaCa-2, Table 16), over 10 µM.
For `O=C(O)c1ccc2c(c1)nc(Nc1cc(F)cc(Cl)c1)c1ccsc12`, in that order: over 10 µM and over 10 µM.
For `N#Cc1cc(F)cc(Nc2nc3cc(C(=O)O)ccc3c3sccc23)c1`, in that order: over 10 µM and over 10 µM.
Consider `Fc1cc(Cl)cc(Nc2nc3cc(-c4nnn[nH]4)ccc3c3sccc23)c1`, for which the IC50 in assay [1] (setting [4]) is over 10 µM; in assay [2] (MIA PaCa-2, Table 16), over 10 µM.
In the case of `C#Cc1cccc(Nc2nc3cc(-c4nnn[nH]4)ccc3c3sccc23)c1`, the IC50 was over 10 µM in assay [1] (setting [4]) and over 10 µM in assay [2] (MIA PaCa-2, Table 16).
For `Fc1cc(F)cc(Nc2nc3cc(-c4nnn[nH]4)ccc3c3sccc23)c1`, the IC50 in assay [1] (setting [4]) was over 10 µM; in assay [2] (MIA PaCa-2, Table 16), over 10 µM.
For the molecule `Fc1cccc(Nc2nc3cc(-c4nnn[nH]4)ccc3c3cnccc23)c1`, the IC50 in assay [3] was over 50 µM.
Same read-out and setting: as for `Fc1cc(Nc2nc3cc(-c4nnn[nH]4)ccc3c3cnccc23)ccc1Cl`, the figure is over 50 µM.
For the molecule `CNc1ncc2c(n1)c(Nc1cccc(Cl)c1)nc1cc(C(=O)O)ccc12`, the half-inhibitory concentration (IC50) with Jurkat is 1.09 µM; in assay [1] (HCT-116, Table 18) it was over 10 µM; in assay [2] (MIA PaCa-2, Table 18) it was 1.75 µM.
For the molecule `O=C(O)c1ccc2c(c1)nc(Nc1cncc(C3CC3)c1)c1ncncc12`, the IC50 is over 50 µM in the assay with Jurkat and over 10 µM in assay [1] (HCT-116, Table 18).
As to `Cc1cccc(Nc2nc3cc(C(=O)O)ccc3c3cncnc23)c1`, the IC50 with Jurkat is 3.45 µM; in assay [1] (HCT-116, Table 18), over 10 µM; in assay [2] (MIA PaCa-2, Table 18), 8.33 µM.
In the case of `O=C(O)c1ccc2c(c1)nc(Nc1cncc(C3CC3)c1)c1ccncc12`, the IC50 in the assay with BxPC3 was 38.1 µM; in the assay on PanC1, over 50 µM.
As for `O=C(O)c1ccc2c(c1)nc(NCc1ccccc1)c1ccncc12` [drawing 1020], the IC50 in assay [1] (HCT-116, Table 18) is over 10 µM; in assay [2] (MIA PaCa-2, Table 18) it was 31.2 µM.
Consider `O=C(O)c1ccc2c(c1)nc(NCCc1cccc(Cl)c1)c1ccncc12` [drawing 1021], for which the IC50 in assay [3] was 46.6 µM; in the assay with Hs578T it was 25 µM; in assay [1] (HCT-116, Table 18), over 10 µM; in assay [2] (MIA PaCa-2, Table 18), over 10 µM.
`O=C(O)c1ccc2c(c1)nc(NCCc1cccc(F)c1)c1ccncc12` [drawing 1022]: the IC50 in assay [3] was 27 µM; in the assay on Hs578T, 24.6 µM; in assay [1] (HCT-116, Table 18), over 10 µM; in assay [2] (MIA PaCa-2, Table 18), over 10 µM.
As for `O=C(O)c1ccc2c(c1)nc(NCCCc1ccccc1)c1ccncc12` [drawing 1023], the IC50 in assay [3] was 5.25 µM; with Hs578T it was 29.9 µM; in assay [1] (HCT-116, Table 18), over 10 µM; in assay [2] (MIA PaCa-2, Table 18), over 10 µM.
With `C#Cc1cccc(Nc2nc3cc(C(=O)O)ccc3c3cnc(NCC4CCCO4)nc23)c1` (stereo not drawn) [drawing 1063], the IC50 with Jurkat was 2.04 µM; in assay [1] (HCT-116, Table 18), over 10 µM; in assay [2] (MIA PaCa-2, Table 18), 0.45 µM.
For `C#Cc1cccc(Nc2nc3cc(C(=O)O)ccc3c3cnc(NCC4CC4)nc23)c1` [drawing 1064], in that order: 0.42 µM, over 10 µM and 0.48 µM.
